# Results taken from ChEMBL document CHEMBL1136415, “3-Acylamino-azetidin-2-one as a novel class of cysteine proteases inhibitors” (Bioorg Med Chem Lett, 2003).
# What was measured:
# Cathepsin B = Cathepsin B (Rattus norvegicus, UniProt P00787); test: Inhibition of recombinant rat Cathepsin B
# Neutrophil elastase = target: T1, Neutrophil elastase (Homo sapiens, UniProt P08246); test: Inhibition of human leukocyte elastase(HLE)
# T1 sequence (P08246 whole entry): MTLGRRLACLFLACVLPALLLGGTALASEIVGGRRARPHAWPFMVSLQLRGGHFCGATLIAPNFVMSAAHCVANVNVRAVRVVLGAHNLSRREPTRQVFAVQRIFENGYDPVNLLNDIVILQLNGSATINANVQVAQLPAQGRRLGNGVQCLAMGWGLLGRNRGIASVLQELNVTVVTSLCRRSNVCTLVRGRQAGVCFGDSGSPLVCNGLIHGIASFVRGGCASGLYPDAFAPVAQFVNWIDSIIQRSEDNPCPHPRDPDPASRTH
# Procathepsin L = Procathepsin L (Homo sapiens, UniProt P07711); test: Inhibition of recombinant human Cathepsin L
# Cathepsin K = target: T2, Cathepsin K (Homo sapiens, UniProt P43235); test: Inhibition of recombinant human Cathepsin K
# T2 sequence (P43235 whole entry): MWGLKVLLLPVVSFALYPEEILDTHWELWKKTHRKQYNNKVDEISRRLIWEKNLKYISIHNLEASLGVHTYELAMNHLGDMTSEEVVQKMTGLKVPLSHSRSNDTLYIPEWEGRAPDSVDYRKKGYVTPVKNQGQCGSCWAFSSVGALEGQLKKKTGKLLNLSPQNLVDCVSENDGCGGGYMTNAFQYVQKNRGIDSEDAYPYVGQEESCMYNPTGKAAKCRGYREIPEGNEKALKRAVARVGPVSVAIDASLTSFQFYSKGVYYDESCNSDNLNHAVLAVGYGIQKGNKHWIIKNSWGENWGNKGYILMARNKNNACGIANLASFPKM
# Cathepsin S = Cathepsin S (Homo sapiens, UniProt P25774); test: Inhibition of recombinant human cathepsin S
# Sequence of Cathepsin S (P25774 whole entry): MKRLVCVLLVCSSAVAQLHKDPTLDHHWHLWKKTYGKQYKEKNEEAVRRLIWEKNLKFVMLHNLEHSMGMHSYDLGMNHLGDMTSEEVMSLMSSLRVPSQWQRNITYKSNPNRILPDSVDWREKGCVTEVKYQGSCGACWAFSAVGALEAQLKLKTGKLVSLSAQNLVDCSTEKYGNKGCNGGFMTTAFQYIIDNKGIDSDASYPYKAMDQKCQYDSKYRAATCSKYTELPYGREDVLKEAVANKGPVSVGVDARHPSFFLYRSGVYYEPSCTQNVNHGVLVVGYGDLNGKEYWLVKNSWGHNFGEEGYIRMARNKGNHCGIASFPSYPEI
# Sequence of Cathepsin B (P00787 whole entry): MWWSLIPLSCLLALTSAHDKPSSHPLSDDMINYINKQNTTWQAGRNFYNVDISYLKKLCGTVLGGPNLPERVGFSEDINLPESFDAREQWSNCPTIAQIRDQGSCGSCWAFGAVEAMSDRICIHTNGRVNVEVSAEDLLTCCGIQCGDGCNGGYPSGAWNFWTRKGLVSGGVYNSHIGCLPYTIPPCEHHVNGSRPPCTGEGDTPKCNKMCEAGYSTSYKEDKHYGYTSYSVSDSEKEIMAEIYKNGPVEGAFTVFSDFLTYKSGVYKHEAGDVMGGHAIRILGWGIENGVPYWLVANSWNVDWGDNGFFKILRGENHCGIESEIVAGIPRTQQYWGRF
# Sequence of Procathepsin L (P07711 whole entry): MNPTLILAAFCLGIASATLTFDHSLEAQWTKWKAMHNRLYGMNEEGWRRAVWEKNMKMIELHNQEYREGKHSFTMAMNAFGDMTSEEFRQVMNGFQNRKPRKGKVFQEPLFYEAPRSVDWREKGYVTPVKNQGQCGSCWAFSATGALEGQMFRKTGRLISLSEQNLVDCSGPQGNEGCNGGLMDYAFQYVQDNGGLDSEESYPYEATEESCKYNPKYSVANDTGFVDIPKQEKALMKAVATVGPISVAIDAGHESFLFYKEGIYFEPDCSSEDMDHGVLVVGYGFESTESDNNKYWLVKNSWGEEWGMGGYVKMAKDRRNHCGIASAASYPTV
Structure (SMILES),IC50 (Cathepsin B) [nM],IC50 (Neutrophil elastase) [nM],IC50 (Procathepsin L) [nM],IC50 (Cathepsin K) [nM],IC50 (Cathepsin S) [nM]
O=C(N[C@@H](Cc1ccccc1)C(=O)N[C@@H]1CNC1=O)OCc1ccccc1,13600,> 50000,37400,> 5000,> 5000
O=C(N[C@@H](Cc1ccccc1)C(=O)N[C@H]1CNC1=O)OCc1ccccc1,2700,> 50000,,,
O=C(N[C@@H](Cc1ccccc1)C(=O)N[C@@H]1C(=O)N[C@H]1Oc1ccccc1)OCc1ccccc1,10900,> 30000,,100,330
O=C(N[C@@H](Cc1ccccc1)C(=O)N[C@@H]1C(=O)N[C@H]1OCc1ccccc1)OCc1ccccc1,32600,> 50000,3960,2500,> 2500
O=C(N[C@@H](Cc1ccccc1)C(=O)N[C@@H]1C(=O)N[C@H]1OC(=O)c1ccccc1)OCc1ccccc1,27500,> 50000,166,100,20
O=C(N[C@@H](Cc1ccccc1)C(=O)N[C@@H]1C(=O)N[C@H]1S(=O)(=O)c1ccccc1)OCc1ccccc1,,> 50000,0.1,6.5,48
O=C(CCc1ccccc1)O[C@@H]1NC(=O)[C@H]1NC(=O)[C@H](Cc1ccccc1)NC(=O)OCc1ccccc1,9710,> 50000,47,38,41
O=C(N[C@@H](Cc1ccccc1)C(=O)N[C@@H]1C(=O)N[C@@H]1Oc1ccccc1)OCc1ccccc1,430,> 30000,,16,
CC(C)(C)O[C@@H]1NC(=O)[C@H]1NC(=O)[C@H](Cc1ccccc1)NC(=O)OCc1ccccc1,11400,> 50000,780,2500,> 2500
CCCCO[C@@H]1NC(=O)[C@H]1NC(=O)[C@H](Cc1ccccc1)NC(=O)OCc1ccccc1,7010,> 50000,163,100,355
O=C(N[C@@H](Cc1ccccc1)C(=O)N[C@@H]1C(=O)N[C@@H]1Sc1ccccc1)OCc1ccccc1,39700,> 50000,15,72,2500
CC(C)CO[C@@H]1NC(=O)[C@H]1NC(=O)[C@H](Cc1ccccc1)NC(=O)OCc1ccccc1,6460,> 50000,91,2300,> 2500
O=C(N[C@@H](Cc1ccccc1)C(=O)N[C@@H]1C(=O)N[C@H]1Sc1ccccc1)OCc1ccccc1,10500,> 50000,0.1,8.4,330
CC(=O)O[C@@H]1NC(=O)[C@H]1NC(=O)[C@H](Cc1ccccc1)NC(=O)OCc1ccccc1,470,> 10000,42,100,207
